≈ marks a conversion by molar mass, not a printed value.
Key:
[1] = physchem; conditions: for solubility at 24 h: kinetic from dmso stock
Method in brief: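 DMSO doubling dilutions were diluted twenty-fold into 100 mM citrate (pH 4), PBS (pH 7.4) or carbonate-bicarbonate (pH 9). After 24 h equilibration at room temperature, absorbance was read at 620 nm. The reported value is the highest concentration without measurable precipitate.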

[2] = system: Staphylococcus aureus (Isolate ID ATCC 29213); assay: Antibacterial activity, MIC, S. aureus; assay type: cell-based; conditions: broth microdilution or agar dilution; for MIC: Staphylococcus aureus, ATCC29213, Gram positive strain
Method in brief: (§1)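 Readout is the MIC, established according to CLSI standard M7-A7 using either agar dilution or broth microdilution.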

[3] = system: Enterococcus faecalis (Isolate ID ATCC 29212); assay: Antibacterial activity, MIC, E. faecalis; assay type: cell-based; conditions: Gram positive strain, broth microdilution or agar dilution; for MIC: Enterococcus faecalis, ATCC29212
Method in brief: as §1

[4] = system: Streptococcus pyogenes (Isolate ID ATCC 51339); assay: Antibacterial activity, MIC, S. pyogenes; assay type: cell-based; conditions: broth microdilution or agar dilution; for MIC: Streptococcus pyogenes, ATCC51339, Gram positive strain
Method in brief: as §1

[5] = system: Haemophilus influenzae (Isolate ID ATCC 49247); assay: Antibacterial activity, MIC, H. influenzae; assay type: cell-based; conditions: Gram negative strain, broth microdilution or agar dilution; for MIC: Haemophilus influenzae, ATCC49247
Method in brief: as §1

[6] = pH 7.4, aqueous buffer, Solubility (pH 7.4)
[7] = pH 7.4, aqueous buffer, Solubility Range
[8] = pH 9, aqueous buffer, Max Solubility
[9] = pH 9, aqueous buffer, Solubility Range (maximum solubility)
[10] = pH 7.4, aqueous buffer, Max Solubility
[11] = pH 7.4, aqueous buffer, Solubility Range (maximum solubility)

SMILES	solubility at 24 h [1, 6] [µg/mL]	solubility at 24 h [1, 7] [µg/mL]	solubility at 24 h [1, 8] [µg/mL]	solubility at 24 h [1, 9] [µg/mL]	MIC [2] [µg/mL]	MIC [3] [µg/mL]	MIC [4] [µg/mL]	MIC [5] [µg/mL]	solubility at 24 h ([1]; pH 4, aqueous buffer, Max Solubility) [µg/mL]	solubility at 24 h ([1]; pH 4, aqueous buffer, Solubility Range (maximum solubility)) [µg/mL]	solubility at 24 h [1, 10] [µg/mL]	solubility at 24 h [1, 11] [µg/mL]	Solubility (pH 7.4) ([1]; pH 7.4) [μg/mL]	Max Solubility ([1]; pH 9)	Antibacterial Activity (MIC) S. aureus (ATCC 29213) ([2]; Gram positive strain)	Antibacterial Activity (MIC) E. faecalis (ATCC 29212) [3]	Antibacterial Activity (MIC) S. pyogenes (ATCC 51339) ([4]; Gram positive strain)	Antibacterial Activity (MIC) H. influenzae (ATCC 49247) [5]
CCNC(=O)Nc1nc2cc(-c3cnc(N4CCC(C)(C(=O)O)CC4)nc3)cc(C#Cc3ccncc3)c2s1 [Compound 151]	400 (≈ 739 µM)	400 to 800 (≈ 739 to 1480 µM)	≥ 800	> 800	0.25 to 1 (≈ 0.462 to 1.85 µM)	≤ 0.25	0.25 to 1 (≈ 0.462 to 1.85 µM)	1 to 16 (≈ 1.85 to 29.5 µM)	–	–	–	–	–	–	–	–	–	–
CCNC(=O)Nc1nc2cc(-c3cnc(N4CCC(C)(C(=O)O)CC4)nc3)cc(-c3nccc(N(C)C)c3C#N)c2s1 [Compound 71]	6.25 (≈ 10.7 µM)	< 12.5	–	–	0.25 to 1 (≈ 0.427 to 1.71 µM)	≤ 0.25	≤ 0.25	0.25 to 1 (≈ 0.427 to 1.71 µM)	50 (≈ 85.4 µM)	12.5 to 400 (≈ 21.3 to 683 µM)	–	–	–	–	–	–	–	–
CCNC(=O)Nc1nc2cc(-c3cnc(N4CCC(N)(C(=O)OC)CC4)nc3)cc(-c3ccccn3)c2s1 [Compound 168]	25 (≈ 46.9 µM)	12.5 to 400 (≈ 23.5 to 751 µM)	–	–	0.25 to 1 (≈ 0.469 to 1.88 µM)	≤ 0.25	1 to 16 (≈ 1.88 to 30 µM)	> 16	–	–	–	–	–	–	–	–	–	–
CCNC(=O)Nc1nc2cc(-c3cnc(N4CCC(C)(C(=O)O)CC4)nc3)cc(O)c2s1 [Compound 26, 1-[5-[2-(ethylcarbamoylamino)-7-hydroxy-1,3-benzothiazol-5-yl]pyrimidin-2-yl]-4-methyl-piperidine-4-carboxylic acid]	≥ 800	> 800	–	–	> 16	1 to 16 (≈ 2.19 to 35 µM)	1 to 16 (≈ 2.19 to 35 µM)	> 16	–	–	–	–	–	–	–	–	–	–
CCNC(=O)Nc1nc2cc(-c3cnc(N4CCC(C)(C(=O)O)CC4)nc3)cc(-c3nc(CO)cs3)c2s1 [Compound 27]	≥ 800	> 800	–	–	1 to 16 (≈ 1.81 to 28.9 µM)	≤ 0.25	≤ 0.25	1 to 16 (≈ 1.81 to 28.9 µM)	–	–	–	–	–	–	–	–	–	–
CCNC(=O)Nc1nc2cc(-c3cnc(N4CCC(C)(C(=O)O)CC4)nc3)cc(C#CC3CCCC3)c2s1 [Compound 150]	≥ 800	> 800	–	–	0.25 to 1 (≈ 0.469 to 1.88 µM)	≤ 0.25	> 16	> 16	–	–	≥ 800	> 800	–	–	–	–	–	–
CCNC(=O)Nc1nc2cc(-c3cnc(N4CCC(OC)(C(=O)OC)CC4)nc3)cc(-c3ccccn3)c2s1 [Compound 175]	25 (≈ 45.7 µM)	12.5 to 400 (≈ 22.8 to 730 µM)	–	–	0.25 to 1 (≈ 0.457 to 1.83 µM)	≤ 0.25	≤ 0.25	1 to 16 (≈ 1.83 to 29.2 µM)	–	–	–	–	–	–	–	–	–	–
CCNC(=O)Nc1nc2cc(-c3cncc(N4CCC(C)(C(=O)O)CC4)c3)cc(-c3ccccn3)c2s1 [Compound 181]	≥ 800	> 800	–	–	0.25 to 1 (≈ 0.484 to 1.94 µM)	≤ 0.25	≤ 0.25	1 to 16 (≈ 1.94 to 31 µM)	–	–	≥ 800	> 800	–	–	–	–	–	–
CCCC1(C(=O)O)CCN(c2ncc(-c3cc(-c4ncccc4C#N)c4sc(NC(=O)NCC)nc4c3)cn2)CC1 [Compound 126]	100 (≈ 175 µM)	12.5 to 400 (≈ 21.9 to 701 µM)	≥ 800	> 800	≤ 0.25	≤ 0.25	≤ 0.25	1 to 16 (≈ 1.75 to 28 µM)	–	–	–	–	–	–	–	–	–	–
CCNC(=O)Nc1nc2cc(-c3cnc(N4CCC(C(=O)O)(S(C)(=O)=O)CC4)nc3)cc(-c3ccccn3)c2s1 [Compound 133]	≥ 800	> 800	–	–	> 16	1 to 16 (≈ 1.72 to 27.5 µM)	1 to 16 (≈ 1.72 to 27.5 µM)	> 16	–	–	–	–	–	–	–	–	–	–
CCNC(=O)Nc1nc2cc(-c3cnc(N4CCC(C)(C(=O)O)CC4)nc3)cc(-c3ncc(F)cn3)c2s1 [Compound 34]	50 (≈ 93.2 µM)	12.5 to 400 (≈ 23.3 to 745 µM)	100 (≈ 186 µM)	12.5 to 400 (≈ 23.3 to 745 µM)	≤ 0.25	≤ 0.25	≤ 0.25	1 to 16 (≈ 1.86 to 29.8 µM)	–	–	–	–	–	–	–	–	–	–
CCCC1(C(=O)OCC)CCN(c2ncc(-c3cc(Br)c4sc(NC(=O)NCC)nc4c3)cn2)CC1 [Compound 119]	–	–	–	–	–	–	–	–	–	–	–	–	400	≧800 μg/mL	A (“A” activity ≦0.25 μg/mL)	A (“A” activity ≦0.25 μg/mL)	C (“C” activity >1.0 μg/mL-16 μg/mL)	D (“D” activity >16 μg/mL)
CCNC(=O)Nc1nc2cc(-c3cnc(N4CCC(C(N)=O)(c5ccccc5)CC4)nc3)cc(-c3ccccn3)c2s1 [Compound 185]	6.25 (≈ 10.8 µM)	< 12.5	–	–	0.25 to 1 (≈ 0.432 to 1.73 µM)	≤ 0.25	1 to 16 (≈ 1.73 to 27.6 µM)	> 16	–	–	–	–	–	–	–	–	–	–

The next lines start with the values.

solubility at 24 h [1, 6] [µg/mL]	solubility at 24 h [1, 7] [µg/mL]	solubility at 24 h [1, 8] [µg/mL]	solubility at 24 h [1, 9] [µg/mL]	MIC [2] [µg/mL]	MIC [3] [µg/mL]	MIC [4] [µg/mL]	MIC [5] [µg/mL]	solubility at 24 h ([1]; pH 4, aqueous buffer, Max Solubility) [µg/mL]	solubility at 24 h ([1]; pH 4, aqueous buffer, Solubility Range (maximum solubility)) [µg/mL]	solubility at 24 h [1, 10] [µg/mL]	solubility at 24 h [1, 11] [µg/mL]	Solubility (pH 7.4) ([1]; pH 7.4) [μg/mL]	Max Solubility ([1]; pH 9)	Antibacterial Activity (MIC) S. aureus (ATCC 29213) ([2]; Gram positive strain)	Antibacterial Activity (MIC) E. faecalis (ATCC 29212) [3]	Antibacterial Activity (MIC) S. pyogenes (ATCC 51339) ([4]; Gram positive strain)	Antibacterial Activity (MIC) H. influenzae (ATCC 49247) [5]	SMILES
100 (≈ 168 µM)	12.5 to 400 (≈ 21.1 to 674 µM)	–	–	≤ 0.25	≤ 0.25	0.25 to 1 (≈ 0.421 to 1.68 µM)	> 16	–	–	–	–	–	–	–	–	–	–	CCNC(=O)Nc1nc2cc(-c3cnc(N4CCC(Cc5ccccc5)(C(=O)O)CC4)nc3)cc(-c3ccccn3)c2s1 [Compound 134]
≥ 800	> 800	–	–	≤ 0.25	≤ 0.25	≤ 0.25	0.25 to 1 (≈ 0.457 to 1.83 µM)	–	–	–	–	–	–	–	–	–	–	CCNC(=O)Nc1nc2cc(-c3cnc(N4CCC(C)(C(=O)O)CC4)nc3)cc(-c3cc(OC)ccn3)c2s1 [Compound 17]
400 (≈ 692 µM)	400 to 800 (≈ 692 to 1380 µM)	–	–	≤ 0.25	≤ 0.25	≤ 0.25	0.25 to 1 (≈ 0.433 to 1.73 µM)	–	–	–	–	–	–	–	–	–	–	CCNC(=O)Nc1nc2cc(-c3cnc(N4CCC(C)(C(=O)O)CC4)nc3)cc(-c3ccc(OC)c(OC)n3)c2s1 [Compound 7]
≥ 800	> 800	–	–	≤ 0.25	≤ 0.25	≤ 0.25	1 to 16 (≈ 1.87 to 29.9 µM)	–	–	≥ 800	> 800	–	–	–	–	–	–	CCNC(=O)Nc1nc2cc(-c3cnc(N4CCC(C)(C(=O)O)CC4)nc3)cc(-c3ncccc3F)c2s1 [Compound 18]
≥ 800	> 800	–	–	≤ 0.25	≤ 0.25	≤ 0.25	1 to 16 (≈ 1.78 to 28.5 µM)	–	–	≥ 800	> 800	–	–	–	–	–	–	CCNC(=O)Nc1nc2cc(-c3cnc(N4CCC(C)(C(=O)O)CC4)nc3)cc(-c3nc(C)ccc3OC)c2s1 [Compound 64]
≥ 800	> 800	–	–	≤ 0.25	≤ 0.25	≤ 0.25	1 to 16 (≈ 1.84 to 29.4 µM)	–	–	–	–	–	–	–	–	–	–	C=CCC1(C(=O)O)CCN(c2ncc(-c3cc(-c4cnccn4)c4sc(NC(=O)NCC)nc4c3)cn2)CC1 [Compound 139, 4-allyl-1-[5-[2-(ethylcarbamoylamino)-7-pyrazin-2-yl-1,3-benzothiazol-5-yl]pyrimidin-2-yl]piperidine-4-carboxylic acid]
400 (≈ 752 µM)	400 to 800 (≈ 752 to 1500 µM)	–	–	≤ 0.25	≤ 0.25	≤ 0.25	1 to 16 (≈ 1.88 to 30.1 µM)	–	–	–	–	–	–	–	–	–	–	CCNC(=O)Nc1nc2cc(-c3cnc(N4CCC(C)(C(=O)O)CC4)nc3)cc(-c3cc(C)ccn3)c2s1 [Compound 6, 1-[5-[2-(ethylcarbamoylamino)-7-(4-methyl-2-pyridyl)-1,3-benzothiazol-5-yl]pyrimidin-2-yl]-4-methyl-piperidine-4-carboxylic acid]
200 (≈ 359 µM)	12.5 to 400 (≈ 22.5 to 719 µM)	≥ 800	> 800	≤ 0.25	≤ 0.25	≤ 0.25	0.25 to 1 (≈ 0.449 to 1.8 µM)	–	–	–	–	–	–	–	–	–	–	CCNC(=O)Nc1nc2cc(-c3cnc(N4CCC(C)(C(=O)O)CC4)nc3)cc(-c3ccc(CC#N)cn3)c2s1 [Compound 82]
